# Reference: patent US8962665B2, “Thiazole and oxazole kinase inhibitors” (AB Science, priority 2010, dated 2015)
# Biological target: T1, Syk (Homo sapiens, UniProt P43405)
# T1 construct: SYK kinase was purified as a full length protein in a baculovirus system near homogeneity; made in house; host or cells: baculovirus system
# Experiment: Syk kinase HTRF (Kinease TK) assay
# Type: biochemical
# Experimental: SYK kinase was purified as a full length protein in a baculovirus system near homogeneity. JAKs kinases (JAK1, JAK2 and JAK3) were purchased either from Invitrogen or from Millipore. All kinases assays were performed with the Kinease TK (tyrosine kinase) HTRF (Homogeneous Time Resolved Fluorescence) assay developed by Cisbio international. […] Reactions were initiated upon introduction of the enzyme and terminated with the addition of one reaction volume (25 μl) of HTRF detection buffer. Plates were incubated for one hour at room temperature and the time resolved Fluorescence resonance energy transfer signal was measured in a Pherastar FS microplate reader (BMG Labtech). All data are the average of triplicate results with a standard deviation<10%.
row,SMILES,IC50 [nM]
1,"Cc1ccnc(Nc2cccc(-c3cnc(-c4cccnc4)s3)n2)c1 [Example 020, (4-Methyl-pyridin-2-yl)-[6-(2-pyridin-3-yl-thiazol-5-yl)-pyridin-2-yl]-amine]",< 1000
2,"Cc1ccnc(Nc2cccc(-c3cnc(-c4ccc5[nH]ccc5c4)o3)n2)c1 [Example 069, {6-[2-(1H-Indol-5-yl)-oxazol-5-yl]-pyridin-2-yl}-(4-methyl-pyridin-2-yl)-amine]",< 1000
3,"Cc1ccnc(Nc2cccc(-c3cnc(-c4ccccn4)s3)n2)c1 [Example 080, (4-Methyl-pyridin-2-yl)-[6-(2-pyridin-2-yl-thiazol-5-yl)-pyridin-2-yl]-amine]",< 1000
4,"Cc1ccnc(Nc2cccc(-c3cnc(-c4nc5ccccc5o4)o3)n2)c1 [Example 048, [6-(2-benzoxazole-2-yl-oxazol-5-yl)-pyridin-2-yl]-(4-methyl-pyridin-2-yl)-amine]",< 1000
5,"Cc1ccnc(Nc2cccc(-c3cnc(-c4ccc[nH]c4=O)o3)n2)c1 [Example 045, 3-{5-[6-(4-methyl-pyridin-2-ylamino)-pyridin-2-yl]-oxazol-2-yl}-1H-pyridin-2-one]",< 1000
6,"Cc1ccnc(Nc2cccc(-c3cnc(-c4cccc(C#N)c4)s3)n2)c1 [Example 064, 3-{5-[6-(4-Methyl-pyridin-2-ylamino)-pyridin-2-yl]-thiazol-2-yl}-benzonitrile]",1000 to 10000
7,"Cc1ccnc(Nc2cccc(-c3cnc(-c4ccccc4)s3)n2)c1 [Example 056, (4-Methyl-pyridin-2-yl)-[6-(2-phenyl-thiazol-5-yl)-pyridin-2-yl]-amine]",< 1000
8,"Cc1ccnc(Nc2cccc(-c3cnc(-c4c(C)cccc4C)o3)n2)c1 [Example 062, {6-[2-(2,6-Dimethyl-phenyl)-oxazol-5-yl]-pyridin-2-yl}-(4-methyl-pyridin-2-yl)-amine]",1000 to 10000

# Now from value to molecule:
row,IC50 [nM],SMILES
1,< 1000,"Cc1ccc(Nc2cccc(-c3cnc(N4CCNC(=O)C4)o3)n2)nc1 [Example 118, 4-{5-[6-(5-Methyl-pyridin-2-ylamino)-pyridin-2-yl]-oxazol-2-yl}-piperazine-2-one]"
2,1000 to 10000,"Clc1ccnc(Nc2cccc(-c3cnc(-c4ccsc4)o3)n2)c1 [Example 120, (4-Chloro-pyridin-2-yl)-[6-(2-thiophen-3-yl-oxazol-5-yl)-pyridin-2-yl]-amine]"
3,< 1000,"O=C1CN(c2ncc(-c3cccc(Nc4cnccn4)n3)o2)CCN1 [Example 140, 4-{5-[6-(Pyrazin-2-ylamino)-pyridin-2-yl]-oxazol-2-yl}-piperazine-2-one]"
4,1000 to 10000,"Cc1ccc(Nc2cccc(-c3cnc(-c4ccc5[nH]ccc5c4)o3)n2)nc1 [Example 116, {6-[2-(1H-Indol-5-yl)-oxazol-5-yl]-pyridin-2-yl}-(5-methyl-pyridin-2-yl)-amine]"
5,< 1000,"Cc1ccnc(Nc2cccc(-c3cnc(N4CCOCC4)o3)n2)c1 [Example 099, (4-Methyl-pyridin-2-yl)-[6-(2-morpholin-4-yl-oxazol-5-yl)-pyridin-2-yl]-amine]"
